The values below come from patent US7271162B2, “Cycloocta[b][1,4]diazepino[6,7,1-hi]indoles and derivatives” (Wyeth, priority 2000, dated 2007).

Series [1] has as its target T1, human 5-hydroxytryptamine2C (h5HT2C) receptor (Homo sapiens, UniProt P28335).
T1 construct: expressed in transfected cells; host or cells: CHO (Chinese Hamster Ovary) cells; membrane preparation
T1 sequence (P28335 33-458): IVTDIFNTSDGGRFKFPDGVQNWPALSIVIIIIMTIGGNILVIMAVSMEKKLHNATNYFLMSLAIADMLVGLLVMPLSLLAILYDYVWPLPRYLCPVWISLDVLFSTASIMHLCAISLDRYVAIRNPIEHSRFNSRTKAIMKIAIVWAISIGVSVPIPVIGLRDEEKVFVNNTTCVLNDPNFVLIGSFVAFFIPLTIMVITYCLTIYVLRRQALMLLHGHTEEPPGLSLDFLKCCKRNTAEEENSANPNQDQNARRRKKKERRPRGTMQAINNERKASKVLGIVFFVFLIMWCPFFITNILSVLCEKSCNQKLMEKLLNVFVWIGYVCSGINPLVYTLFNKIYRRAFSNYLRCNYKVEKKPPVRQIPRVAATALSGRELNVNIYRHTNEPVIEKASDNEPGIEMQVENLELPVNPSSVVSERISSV
Put plainly: 5HT2C Receptor Binding Test Procedure ([125I] DOI displacement, membranes of transfected CHO cells).

The target of series [2] is T2, human 5-HT2C receptor (Homo sapiens, UniProt P28335).
T2 sequence (P28335 33-458): T1 sequence (P28335 33-458)
Put plainly: Stimulation of [3H] Inositol Monophosphate Production by 5HT2C Agonists in transfected CHO cells. Conditions: read-out: 5HT2C Stimulation of IP3 % Emax (5HT, 100%).
Protocol: One (1) ml of maintenance medium containing 1 μCi/ml myo-[^3H] inositol was added to each well. After 48 hours labeling, the cells were washed once with 0.5 ml DMEM containing 25 mM HEPES and 10 mM LiCl, then preincubated with the medium for 30 min (antagonists were included in this period if tested). At the end of the preincubation, the medium was removed, the cells were then incubated with test compounds (in presence of antagonists if needed) for 30 min. The reaction was terminated by removal of the incubation solution and addition of 0.5 ml ice-cold 5% PCA, followed by 15 to 30 min incubation on ice. 200 μl of 0.5 M Tes/1.5 M K2CO3 was added to each well to neutralize to pH 7, and plates were left on ice for another 15 to 30 min to precipitate all salts. The liquid and solid phases were separated by centrifugation.
A portion (350 μl) of the upper aqueous phase was applied to Dowex AG-1X8 (formate form, 100-200 mesh) columns. The columns were then washed stepwise with 10 ml of water and 10 ml of 25 mM ammonium formate to remove free myo-[^3H]inositol and deacylated phosphoinositol, respectively. Finally 10 ml of 0.2 M ammonium formate solution was applied to the columns to elute [^3H] inositol monophosphate ([^3H] IP1) directly into scintillation vials. Of this eluate, 1 ml was used to determine radioactivity by scintillation counting. […]

Counter-ions that a name gives are not always drawn. Like-named read-outs stand apart in the source and are kept apart here.

Usually melting point stands for the temperature of the solid-liquid transition. For `c1cc2c3c(c1)c1c(n3CCNC2)CCCCCC1` (as salt: hydrochloride) [Example 1, 1,2,3,4,8,9,10,11,12,13-Decahydrocycloocta[b][1,4]diazepino[6,7,1-hi]indole], the melting point fell in the range of 316 to 318 °C.
A word on the Kd: it is a measure of binding affinity in units of concentration. Consider `COc1cc(CC(C)N)c(OC)cc1I` (stereo not drawn) [[^125I] DOI], for which the equilibrium dissociation constant (Kd) in series [1] (read-out: dissociation constant, KD of [125I] DOI at the human serotonin 5HT2C receptor, saturation binding with increasing concentrations of [125I] DOI) amounted to 0.4 nM.
What is called Ki is a measure of affinity in units of concentration, obtained from inhibition or displacement. For the compound `c1cc2c3c(c1)C1CCCCCCC1N3CCNC2` (stereo not drawn) [Example 2, 1,2,3,4,7b,8,9,10,11,12,13,13a-Dodecahydrocycloocta[b][1.4]diazepino[6,7,1-hi]indole], the melting point lay within 58 to 63 °C. The compound further had a Ki in series [1] of 65 nM.
Take `CSc1ccc2c(c1)C(N1CCN(C)CC1)Cc1ccccc1S2` (stereo not drawn) [Methiothepin]: the Ki in series [1] (reference compounds, [125I] DOI binding, h5HT2C CHO membranes, read-out: Ki value and 95% confidence interval) was determined as 4.6 nM.
What is called Emax is the size of the effect at its maximum, as opposed to the concentration needed. As to `c1cc2c3c(c1)c1c(n3CCNC2)CCCCCC1` [Example 1, 1,2,3,4,8,9,10,11,12,13-Decahydrocycloocta[b][1,4]diazepino[6,7,1-hi]indole], the Emax in series [2] was found to be 120%.
